From patent US20050137220A1 (Pharmacia Corporation, priority 2003, published 2005) come the findings set out here.

Structures can show the parent of a compound that is named as a salt. A value given as a limit tells only on which side of the number the result lay.

In this test the target is MK-2 (Homo sapiens, UniProt P49137). Briefly: Determination of MK-2 IC50 (phosphorylation of HSP-peptide, anion exchange resin capture assay). The format is biochemical. To be noted: additional values are replicate IC50 experiments; mixture of stereoisomers implied unless otherwise noted; read-out: MK-2 Avg. IC50.
Chain of MK-2 (P49137 whole entry, species assumed): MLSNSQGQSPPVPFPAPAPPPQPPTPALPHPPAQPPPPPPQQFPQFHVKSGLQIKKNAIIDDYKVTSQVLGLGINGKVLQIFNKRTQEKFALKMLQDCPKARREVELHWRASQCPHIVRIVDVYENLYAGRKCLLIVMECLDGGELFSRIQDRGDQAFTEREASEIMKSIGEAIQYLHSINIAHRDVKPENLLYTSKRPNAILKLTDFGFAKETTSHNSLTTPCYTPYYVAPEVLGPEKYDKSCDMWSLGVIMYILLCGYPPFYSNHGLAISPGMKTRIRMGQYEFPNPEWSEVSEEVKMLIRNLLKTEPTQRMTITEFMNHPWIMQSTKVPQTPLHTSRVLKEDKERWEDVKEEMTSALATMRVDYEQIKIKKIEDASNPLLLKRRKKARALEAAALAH
For `COc1cccc2c3c([nH]c12)C(C(=O)O)NCC3` (stereo not drawn) [Example 223, 8-methoxy-2,3,4,9-tetrahydro-1H-beta-carboline-1-carboxylic acid trifluoroacetate hydrate], the IC50 was above 200 µM. The same measure for `O=C1NCCc2c1[nH]c1cccc(C(=O)N3CCOCC3)c21` [Example 251, 5-(morphoiln-4-ylcarbonyl)-2,3,4,9-tetrahydro-1H-beta-carbolin-1-one]: above 200 µM; for `O=C1NCCc2c1[nH]c1ccc(I)cc21` [Example 120, 6-iodo-2,3,4,9-tetrahydro-1H-beta-carbolin-1-one]: 75.2 µM. The same measure for `Cc1ccc2[nH]c3c(c2c1)CCNC3=O` [Example 254, 1h-Pyrido[3,4-B]Indol-1-One,2,3,4,9-Tetrahydro-6-Methyl-]: above 200 µM. The same measure for `COc1ccc2[nH]c3c(c2c1)C1CCCCC1NC3C(=O)O` (centres unmarked) [Example 191, 10-methoxy-2,3,4,4a,5,6,7,11c-octahydro-1H-indolo[2,3-c]quinoline-6-carboxylic acid]: above 200 µM; for `COC(=O)C1(C)NCCc2c1[nH]c1ccccc21` (centres unmarked) [Example 212, 1h-Pyrido[3,4-B]Indole-1-Carboxylic Acid, 2,3,4,9-Tetrahydro-1-Methyl-,Methyl Ester]: above 200 µM; for `COCCOc1ccc2[nH]c3c(c2c1)CCNC3C(=O)O` (stereo not drawn) [Example 135, 6-(2-methoxyethoxy)-2,3,4,9-tetrahydro-1H-beta-carboline-1-carboxylic acid]: 110 µM. Turning to `O=C1NCCc2c1[nH]c1ccc(O)cc21` [Example 108, 6-hydroxy-2,3,4,9-tetrahydro-1H-beta-carbolin-1-one], the IC50 stood at 48.9 µM. Take `COC(=O)C1(CCl)NCCc2c1[nH]c1ccccc21` (stereo not drawn) [Example 164, methyl 1-(chloromethyl)-2,3,4,9-tetrahydro-1H-beta-carboline-1-carboxylate]: the half-inhibitory concentration (IC50) was above 200 µM. The same measure for `COC(=O)C12CCC(=O)N1CCc1c2[nH]c2ccc(OC)cc12` (centres unmarked) [Example 162, methyl 8-methoxy-3-oxo-2,3,6,11-tetrahydro-1H-indolizino[8,7-b]indole-11b(5H)-carboxylate]: above 200 µM; for `COc1ccc2[nH]c3c(c2c1)CC(CN(C)C)NC3C(=O)O` (stereo not drawn) [Example 187, 3-[(dimethylamino)methyl]-6-methoxy-2,3,4,9-tetrahydro-1H-beta-carboline-1-carboxylic acid trifluoroacetate]: above 200 µM. Consider `COc1ccc2[nH]c3c(c2c1)CCC(C)(C)C3=NO` (mixture of isomers) [Example 272, 6-methoxy-2,2-dimethyl-2,3,4,9-tetrahydro-1H-carbazol-1-one oxime], for which the 50% inhibitory concentration (IC50) is above 200 µM. Under `ON=C1CCCc2c1[nH]c1ccc(C(F)(F)F)cc21` [Example 154, 6-(trifluoromethyl)-2,3,4,9-tetrahydro-1H-carbazol-1-one oxime] stands 156 µM. Under `CS(=O)(=O)c1ccc(COc2ccc3[nH]c4c(c3c2)CCNC4C(=O)O)cc1` (stereo not drawn) [Example 104, 6-{[4-(methylsulfonyl)benzyl]oxy}-2,3,4,9-tetrahydro-1H-beta-carboline-1-carboxylic acid hydrochloride] stands 44.9 µM; under `O=C1NCCc2c1[nH]c1c(Cl)cccc21` [Example 262, 1H-Pyrido[3,4-b]indol-1-one,8-chloro-2,3,4,9-tetrahydro- or 8-chloro-2,3,4,9-tetrahydro-1H-beta-carbolin-1-one], above 200 µM. The same measure for `COc1ccc2[nH]c3c(c2c1)CCN1C(=O)CCC31C(=O)O` (centres unmarked) [Example 163, 8-methoxy-3-oxo-2,3,6,11-tetrahydro-1H-indolizino[8,7-b]indole-11b(5H)-carboxylic acid]: above 200 µM.

With `COc1cc2[nH]c3c(c2cc1OC)CCNC3C(=O)O` (stereo not drawn) [Example 201, 6,7-dimethoxy-2,3,4,9-tetrahydro-1H-beta-carboline-1-carboxylic acid trifluoroacetate], the IC50 is above 200 µM.

For orientation: IC50 means the midpoint of a concentration-inhibition curve.
